Test [1] deals with T1, Thymidylate synthase (Mus musculus, UniProt P07607). Kind of test: Evaluated for the inhibition of thymidylate synthase in intact L1210 cells. It is filed as cell-based.
Test [2] deals with Enterococcus faecium. Kind of test: Antimicrobial activity against Streptococcus faecium strain, ATCC 8043. The class given is functional.
A further test has as its target Dihydrofolate reductase (Lactobacillus casei, UniProt P00381). Kind of test: Evaluated for the inhibition of dihydrofolate reductase in Lactobacillus casei. Further details: species or system Lacticaseibacillus casei.
For test [3], the system named is Lacticaseibacillus casei. Kind of test: Antimicrobial activity against Lactobacillus casei strain ATCC 7469. It is filed as functional. Further details: unit not given here.
Test [4] concerns Lacticaseibacillus casei. The test can be described thus: Antimicrobial activity against Lactobacillus casei MTX-resistant strain. The class given is functional. Further details: unit not given here.
Test [5] has as its system Thymidylate synthase (Bos taurus). Kind of test: Inhibition of Calf thymus thymidylate synthase in the presence of 20 uM.
The test system of test [6] is Enterococcus faecium. The test can be described thus: Antimicrobial activity against Streptococcus faecium strain, MTX-resistant. It is filed as functional. Further details: unit not given here.
Test [7] deals with T2, Thymidylate synthase (Lactobacillus casei, UniProt P00469).
T2 sequence (P00469 whole entry): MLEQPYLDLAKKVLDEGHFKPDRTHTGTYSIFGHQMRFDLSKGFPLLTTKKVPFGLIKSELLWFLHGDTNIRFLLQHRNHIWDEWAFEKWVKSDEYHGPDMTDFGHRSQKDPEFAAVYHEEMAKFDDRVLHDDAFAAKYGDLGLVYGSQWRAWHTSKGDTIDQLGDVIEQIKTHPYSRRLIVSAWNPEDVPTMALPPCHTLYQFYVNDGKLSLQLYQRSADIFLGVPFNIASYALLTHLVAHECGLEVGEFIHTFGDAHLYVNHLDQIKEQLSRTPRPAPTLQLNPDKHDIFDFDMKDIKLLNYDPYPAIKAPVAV
The test can be described thus: Evaluated for the inhibition of thymidylate synthase in Lactobacillus casei. Further details: species or system Lacticaseibacillus casei.

The target in test [8] is T1, Thymidylate synthase. The test can be described thus: Evaluated for the inhibition of thymidylate synthase in permeabilised L1210 cells. It is filed as cell-based.
Test [9] deals with Enterococcus faecium. The test can be described thus: Antimicrobial activity against Streptococcus faecium strain ATCC 8043. It is filed as functional. Further details: unit not given here.
In test [10] the target is T3, Dihydropteroate synthase (Escherichia coli K-12) (UniProt P0AC13).
T3 sequence (whole entry): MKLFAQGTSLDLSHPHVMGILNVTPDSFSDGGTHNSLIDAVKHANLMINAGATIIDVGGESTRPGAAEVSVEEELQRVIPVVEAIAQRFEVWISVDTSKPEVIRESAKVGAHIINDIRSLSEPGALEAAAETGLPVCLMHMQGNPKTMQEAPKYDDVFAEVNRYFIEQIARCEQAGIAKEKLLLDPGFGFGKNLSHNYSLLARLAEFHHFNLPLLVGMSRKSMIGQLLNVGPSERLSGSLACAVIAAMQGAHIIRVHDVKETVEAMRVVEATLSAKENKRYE
The test can be described thus: Inhibition of E. uM. Particulars: concentration not given here.

Structures are written as SMILES.

Sequence of Dihydrofolate reductase (P00381 whole entry): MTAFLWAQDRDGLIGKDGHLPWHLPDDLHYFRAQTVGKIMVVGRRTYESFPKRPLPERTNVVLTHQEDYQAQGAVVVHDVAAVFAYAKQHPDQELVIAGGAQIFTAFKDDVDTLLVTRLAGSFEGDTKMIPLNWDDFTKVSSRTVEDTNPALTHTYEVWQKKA
T1 sequence (P07607 whole entry): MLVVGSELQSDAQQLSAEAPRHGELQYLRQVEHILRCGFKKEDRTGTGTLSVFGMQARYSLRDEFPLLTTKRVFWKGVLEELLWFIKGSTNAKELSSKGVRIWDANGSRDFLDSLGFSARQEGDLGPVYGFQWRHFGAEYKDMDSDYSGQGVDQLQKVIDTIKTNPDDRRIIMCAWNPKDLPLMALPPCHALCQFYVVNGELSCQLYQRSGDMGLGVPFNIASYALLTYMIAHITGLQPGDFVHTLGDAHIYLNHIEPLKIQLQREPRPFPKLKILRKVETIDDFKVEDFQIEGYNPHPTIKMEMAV

In the case of `C#CCN(CC1CCc2nc(N)nc(O)c2C1)c1ccc(C(=O)NC(CCC(=O)O)C(=O)O)cc1` (configuration not stated), the IC50 at Thymidylate synthase [1] stood at 1100 µM; on Dihydrofolate reductase, 10 µM; on Thymidylate synthase [7] it was 23 µM; against Thymidylate synthase [8], 11 µM. For the same compound, the Activity with Enterococcus faecium [2] is 1.8; in the test with Lacticaseibacillus casei [3], 4.7; in the test with Lacticaseibacillus casei [4] it was more than 10000; in the test with Enterococcus faecium [6], 350. In addition, the inhibition in test [5] was 50%.

Consider `C#CCN(CC1CCc2nc(N)nc(O)c2C1)c1ccc(C(=O)O)cc1` (configuration not stated), for which the concentration for half-maximal inhibition (IC50) at Dihydrofolate reductase was determined as 190 µM; against Thymidylate synthase [7], 610 µM. Besides, the Activity in the test with Lacticaseibacillus casei [3] was 1000; with Enterococcus faecium [9], 26; in the test with Lacticaseibacillus casei [4] it was more than 20000; with Enterococcus faecium [6] it was 14000.

As to `Nc1nc(O)c2c(n1)CCC(CBr)C2` (configuration not stated), the inhibition in test [10] amounted to 7%.

Consider `CN(CC1CCc2nc(N)nc(O)c2C1)c1ccc(C(=O)NC(CCC(=O)O)C(=O)O)cc1` (configuration not stated), for which the Activity was 0.57 in the test on Enterococcus faecium [2], 2.8 in the test on Lacticaseibacillus casei [3], more than 20000 in the test on Lacticaseibacillus casei [4] and 13 in the test on Enterococcus faecium [6]. Besides, the inhibition in [10] was 35.1%.

For `Nc1nc(O)c2c(n1)CCC(CO)C2` (configuration not stated), the inhibition in test [10] turned out to be 1.3%.

For `C#CCN(Cc1ccc2[nH]c(N)nc(=O)c2c1)c1ccc(C(=O)NC(CCC(=O)O)C(=O)O)cc1` (configuration not stated), the Activity worked out at 0.4 in the test with Lacticaseibacillus casei [3], 0.13 in the test with Enterococcus faecium [9], 6400 in the test with Lacticaseibacillus casei [4] and 20 in the test on Enterococcus faecium [6].

`CN(CC1CCc2nc(N)nc(O)c2C1)c1ccc(C(=O)O)cc1` (configuration not stated): the IC50 against Dihydrofolate reductase and at Thymidylate synthase [7] was more than 200 µM in each case. Further, the Activity was 15800 with Lacticaseibacillus casei [3], 5.2 with Enterococcus faecium [9], more than 20000 in the test on Lacticaseibacillus casei [4] and 8200 with Enterococcus faecium [6].

With `Nc1nc(O)c2c(n1)CCC(CNc1ccc(C(=O)O)cc1)C2` (configuration not stated), the IC50 on Dihydrofolate reductase and at Thymidylate synthase [7] was more than 200 µM in each case. Besides, the Activity in the test on Lacticaseibacillus casei [3] is reported as more than 20000; in the test on Enterococcus faecium [9] it was 400; in the test on Enterococcus faecium [6], more than 20000.

For the compound `Nc1nc(O)c2c(n1)CCC(CNc1ccc(C(=O)NC(CCC(=O)O)C(=O)O)cc1)C2` (configuration not stated), the IC50 against Thymidylate synthase [1] was 1000 µM; against Dihydrofolate reductase, 30 µM; against Thymidylate synthase [7], more than 280 µM; on Thymidylate synthase [8] it was 12 µM. The Activity is on record as 140 in the test on Enterococcus faecium [2], 7.5 with Lacticaseibacillus casei [3], more than 20000 in the test on Lacticaseibacillus casei [4] and 900 with Enterococcus faecium [6].

Turning to `CN(CC1CCc2nc(N)[nH]c(=O)c2C1)c1ccc(C(=O)NC(CCC(=O)O)C(=O)O)cc1` (configuration not stated), the values for the IC50 against Dihydrofolate reductase and against Thymidylate synthase [7] were 16 µM and 120 µM, respectively.

Values taken from ChEMBL document CHEMBL1123906, “Folate analogues. 30. Synthesis and biological evaluation of N10-propargyl-5,8-dideaza-5,6,7,8-tetrahydrofolic acid and related compounds” (J Med Chem, 1987).
